Literature values in patent publication US11903921B2 (priority 2020, dated 2024).

How the values were obtained:
[1] = test system: SEB-exposed mice; settings: mouse, in vivo
[2] = test system: ovalbumin-induced asthma; settings: through inhibition of NF-κB activity
[3] = test system: LPS-induced acute pulmonary inflammation; settings: 100 μmol/kg bodyweight, mouse
[4] = test system: basophils
[5] = test system: hyaluronan; settings: inhibitor of hyaluronan; compared with 4-MU
[6] = animal and human studies; orally in water, inhaled, intravenous
[7] = test system: influenza and respiratory tract infections; settings: prophylaxis and treatment

Cc1cc(=O)oc2cc(O)ccc12 [4-MU, 7-Hydroxy-4-methyl-2H-chromen-2-one]
SEB-induced lung permeability [1]: reduction in SEB-induced lung permeability
cytokine production [1]: reduced cytokine production
expression of HAS-1, HAS-2, and HAS-3 [1]: reduces expression of HAS-1, HAS-2, and HAS-3
levels of HA in the lungs [1]: reduced levels of HA

O=c1c(O)c(-c2ccc(O)c(O)c2)oc2cc(O)ccc12 [Fisetin]
efficacy in ovalbumin-induced asthma [2]: effective
anti-inflammatory effects compared with dexamethasone [3]: more pronounced than dexamethasone
measures of inflammation [3]: significantly reduced numerous measures of inflammation
expression of T(H)2-type cytokines (IL-4, IL-13, and IL-5) [4]: powerfully suppress
effective dose relative to 4-MU [5]: 10 times lower

[HH] [Molecular hydrogen]
harmlessness [6]: essentially harmless

CCCCCCCCCCCCCCCC(=O)NCCO [PEA, palmitoylethanolamide]
efficacy and safety in influenza and respiratory tract infections [7]: effective and safe
